# Measured values published in patent US20130018094A1, “Prophylactic or Therapeutic Agent For Gum Disease or Apical Periodontitis” (priority 2009, published 2013).
# Entries after “also recorded” stand apart in the source; their conditions may differ.
# Legend:
# IL-1α = experiment: Rat apical periodontitis model: level of expression of IL-1α in the lesions by real-time PCR; type: in vivo; conditions: male Wistar rats, 150 mg/kg orally twice per day, after 21 days, vs control group
# Experimental: (§1) An experiment was conducted using six-week-old male Wistar rats. After the pulp of the mandibular first molar was exposed using a round bar, apical periodontitis was induced by extracting the pulp and opening it inside the oral cavity. In the experimental groups, monosodium (2S,3S)-3-[[(1S)-1-isobutozymethyl-3-methylbutyl]-carbamoyl]oxirane-2-carboxylate (compound A: 150 mg/kg) was orally administered twice per day. A non-administration group was used as a control. After 21 days, the rats were euthanized and the jawbone surrounding each mandibular molar was extracted. The left side was fixed in 4% paraformaldehyde/phosphate buffer solution (PBS) (4° C., 12 hours), and then the size of the apical lesion was measured by micro-CT imaging (Shimadzu SMX-90CT). After that, it was decalcified with 15% EDTA solution and embedded in OCT compound, and frozen slices 7 μm thick were made. […] On the right side, the lesion portion surrounding the apex was extracted as a lump together with the apex, and after RNA extraction (Qiagen: RNeasy Lipid Tissue Mini Kit), cDNA was created by ordinary methods (Invitrogen: Superscript III), and the levels of expression of inflammatory cytokines (IL-1α and IL-6) were measured by real-time PCR (BioRad: DNA Engine Opticon 2; Invitrogen: Platinum SYBR Green qPCR SuperMix).
# [1] = tested on: rat experimental apical periodontitis; experiment: Rat apical periodontitis model: size of apical lesions by micro-CT; type: in vivo; conditions: male Wistar rats, 150 mg/kg orally twice per day
# Experimental: Using a rat apical periodontitis model, pharmacological tests were conducted for monosodium (2S,3S)-3-[[(1S)-1-isobutozymethyl-3-methylbutyl]-carbamoyl]oxirane-2-carboxylate.
# as §1, with “SMX-90CT).” for “SMX-90CT). After that, it was decalcified with 15% EDTA solution and embedded in OCT compound, and frozen slices 7 μm thick were made.”
# IL-6 = experiment: Rat apical periodontitis model: level of expression of IL-6 in the lesions by real-time PCR; type: in vivo; conditions: male Wistar rats, 150 mg/kg orally twice per day, after 21 days, vs control group
# Experimental: as §1
# cathepsin K = target: T1, cathepsin K (Homo sapiens, UniProt P43235); conditions: known from Patent Reference 4 (WO 99/11640); cited from earlier work
# T1 sequence (P43235 115-329): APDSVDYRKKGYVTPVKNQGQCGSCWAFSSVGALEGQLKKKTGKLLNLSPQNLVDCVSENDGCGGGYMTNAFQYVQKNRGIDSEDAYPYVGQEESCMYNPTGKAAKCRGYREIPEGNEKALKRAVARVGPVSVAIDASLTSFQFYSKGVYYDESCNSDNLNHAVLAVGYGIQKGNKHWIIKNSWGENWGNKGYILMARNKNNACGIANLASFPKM
# [2] = tested on: osteoclasts on the alveolar bone surrounding the apex; experiment: Rat apical periodontitis model: histological examination (HE and TRAP staining) of osteoclasts; type: in vivo; conditions: male Wistar rats, 150 mg/kg orally twice per day, after 21 days, vs control group
# Experimental: as §1
smiles,measurement,setting,value
"CC(C)COC[C@H](CC(C)C)NC(=O)[C@H]1O[C@@H]1C(=O)[O-].[Na+] [compound A, monosodium (2S,3S)-3-[[(1S)-1-isobutozymethyl-3-methylbutyl]-carbamoyl]oxirane-2-carboxylate]",level of expression of IL-1α in the lesions,IL-1α,significantly suppressed
same,suppressive effect against progression of rat experimental apical periodontitis,[1]; 21 days,excellent suppressive effect
same,size of apical lesions by micro-CT,"[1]; after 21 days, vs control group, 150 mg/kg",smaller apical lesions were formed; also recorded: their size was smaller than in the control group
same,level of expression of IL-6 in the lesions,IL-6,significantly suppressed
same,cathepsin K inhibiting action,cathepsin K,has a cathepsin K inhibiting action
same,number of osteoclasts on the alveolar bone surrounding the apex (histological examination),[2],their number tended to be small
